In ChEMBL document CHEMBL1212812, “Multi-target spectral moment QSAR versus ANN for antiparasitic drugs against different parasite species” (Bioorg Med Chem, 2010):
Structures can show the parent of a compound that is named as a salt.

Test system: Plasmodium falciparum
Assay: Antimicrobial activity against Plasmodium falciparum
Type: functional, organism-based

Row | IC50 | Structure (SMILES)
1 | 30 µM | Nc1ncc(Cc2cccc(Oc3ccccc3)c2)c(N)n1
2 | 9 µM | CC1(C)Oc2c(c3nc4ccccc4nc3c3ccccc23)CC1Br (stereo unspecified)
3 | 3 µM | Nc1ncc(Cc2ccc(OCc3ccccc3)c(OCc3ccccc3)c2)c(N)n1
4 | 5 µM | COc1cc(Cc2cnc(N)nc2N)ccc1OCc1ccccc1
5 | 31 µM | COc1cc(Cc2cnc(N)nc2N)ccc1OCc1cc(OC)c(OC)c(OC)c1
6 | 3 µM | Nc1ncc(Cc2cccc(OCc3ccccc3)c2)c(N)n1
7 | 4 µM | COc1ccc(Cc2cnc(N)nc2N)cc1OCc1ccccc1
8 | 23 µM | COc1cc(Cc2c(C)nc(N)nc2N)cc(OC)c1OC
9 | 8 µM | Nc1nc(N)c(-c2cccc(Cl)c2)c(CCCOC(=O)c2ccccc2)n1
10 | 2 µM | Nc1nc(N)c(-c2cccc(Cl)c2)c(CCCOC(=O)OCc2ccccc2)n1
11 | 21 µM | COc1cc(COc2ccc(Cc3cnc(N)nc3N)cc2)cc(OC)c1OC
12 | 50 µM | CCc1nc(N)nc(N)c1Cc1cc(OC)c(OC)c(OC)c1
13 | 1 µM | Nc1nc(N)c(-c2cccc(Cl)c2)c(CCCO)n1
14 | 2 µM | CC(=O)OCCCc1nc(N)nc(N)c1-c1cccc(Cl)c1
15 | 21 µM | Nc1ncc(Cc2ccc(OCc3ccccc3)cc2)c(N)n1
16 | 200 µM | O=P(O)(O)C(NC1CCCCC1)P(=O)(O)O [(CYCLOHEXYLAMINO)METHYLENEDIPHOSPHONIC ACID]
17 | 200 µM | O=P(O)(O)C(NC1CCCCCCC1)P(=O)(O)O [(CYCLOOCTYLAMINO)METHYLENEDIPHOSPHONIC ACID]
18 | 200 µM | O=P(O)(O)C(NC1CCCC1)P(=O)(O)O [(CYCLOPENTYLAMINO)METHYLENEDIPHOSPHONIC ACID]
19 | 200 µM | CC(C)N(C(C)C)C(P(=O)(O)O)P(=O)(O)O [(DIISOPROPYLAMINO)METHYLENEDIPHOSPHONIC ACID]
20 | 200 µM | CC(C)CCNC(P(=O)(O)O)P(=O)(O)O [(ISOPENTYLAMINO)METHYLENEDIPHOSPHONIC ACID]
21 | 1030 µM | CC(=O)NO [ACETOHYDROXAMIC ACID]

Row | IC50 | Structure (SMILES)
22 | 4 µM | O=C1Cc2c([nH]c3ccc([N+](=O)[O-])cc23)-c2ccccc2N1 [ALSTERPAULLONE]
23 | 30 µM | Oc1ccc(Nc2ccnc3cc(Cl)ccc23)cc1CN1CCCC1 [AMOPYROQUINE]
24 | 17 µM | O=C(NO)c1ccccc1 [BENZOHYDROXAMATE]
25 | 134 µM | CC(CCCN)Nc1ccnc2cc(Cl)ccc12 (stereo unspecified) [BIDESETHYL CHLOROQUINE]
26 | 9 µM | CC(C)NC(=N)NC(=N)Nc1ccc(Cl)c(Cl)c1 [CHLORPROGUANIL]
27 | 28 µM | CN(C)CCCN1c2ccccc2Sc2ccc(Cl)cc21 [CHLORPROMAZINE]
28 | 222 µM | CN(C)CCCC1(c2ccc(F)cc2)OCc2cc(C#N)ccc21 (stereo unspecified) [CITALOPRAM]
29 | 3 µM | CC1(C)N=C(N)N=C(N)N1c1ccc(Cl)cc1 [CYCLOGUANIL]
30 | 44 µM | CC(CCCN1CCCC1)Nc1ccnc2cc(Cl)ccc12 (stereo unspecified) [Chloroquine-pyrolidinyl]
31 | 18 µM | Nc1ccc(S(=O)(=O)c2ccc(N)cc2)cc1 [DAPSONE]
32 | 51 µM | CCN(CC)Cc1cc(Nc2ccnc3cc(Cl)ccc23)cc(-c2ccc(Cl)cc2)c1 [DEHYDROXY TEBAQUINE]
33 | 3 µM | CCNCCCC(C)Nc1ccnc2cc(Cl)ccc12 (stereo unspecified) [DESETHYLCHLOROQUINE]
34 | 12 µM | CNCCCN1c2ccccc2CCc2ccccc21 [DESIPRAMINE]
35 | 18 µM | C[C@H]1c2cccc(O)c2C(=O)C2=C(O)[C@]3(O)C(=O)C(C(N)=O)=C(O)[C@@H](N(C)C)[C@@H]3[C@@H](O)[C@@H]21 [DOXYCYCLINE]
36 | 18 µM | CC[C@H]1OC(=O)[C@H](C)[C@@H](O[C@H]2C[C@@](C)(OC)[C@@H](O)[C@H](C)O2)[C@H](C)[C@@H](O[C@@H]2O[C@H](C)C[C@H](N(C)C)[C@H]2O)[C@](C)(O)C[C@@H](C)C(=O)[C@H](C)[C@@H](O)[C@]1(C)O [ERYTHROMYCIN]
37 | 185 µM | CCCCN(CCCC)CCC(O)c1cc2c(Cl)cc(Cl)cc2c2cc(C(F)(F)F)ccc12 (stereo unspecified) [HALOFANTRINE]
38 | 792 µM | NC(=O)NO [HYDROXYUREA]
39 | 6 µM | C=C[C@@H]1CN2CC[C@@]3(CNc4cc(O)ccc43)[C@@H]2C[C@@H]1C[C@H]1c2[nH]c3ccccc3c2CCN1C [ISOSTRYCHNOFOLINE]
40 | 4 µM | O=C1Cc2c([nH]c3ccc(Br)cc23)-c2ccccc2N1 [KENPAULLONE]
41 | 28 µM | C=C(C)[C@@H]1CC[C@]2(C)CC[C@]3(C)[C@H](CC[C@@H]4[C@@]5(C)CC[C@H](O)C(C)(C)[C@@H]5CC[C@]43C)[C@@H]12 [LUPEOL]
42 | 3 µM | CN(C)c1ccc(O)c2c1C[C@H]1C[C@H]3[C@H](N(C)C)C(O)=C(C(N)=O)C(=O)[C@@]3(O)C(O)=C1C2=O [MINOCYCLINE]

Row | IC50 | Structure (SMILES)
43 | 3 µM | Cn1cnc2c(NCc3ccccc3)nc(NCCO)nc21 [OLOMOUCINE]
44 | 76 µM | COc1ccc2[nH]c([S+]([O-])Cc3ncc(C)c(OC)c3C)nc2c1 (stereo unspecified) [OMEPRAZOLE]
45 | 245 µM | CNCC(O)CC12CCC(c3ccccc31)c1ccccc12 (stereo unspecified) [OXAPROTILINE]
46 | 15 µM | CCCCC1C(=O)N(c2ccccc2)N(c2ccc(O)cc2)C1=O (stereo unspecified) [OXYPHENBUTAZONE ANHYDROUS]
47 | 34 µM | CN(C)[C@@H]1C(O)=C(C(N)=O)C(=O)[C@@]2(O)C(O)=C3C(=O)c4c(O)cccc4[C@@](C)(O)[C@H]3[C@H](O)[C@@H]12 [OXYTETRACYCLINE]
48 | 39 µM | COc1ccnc(C[S+]([O-])c2nc3cc(OC(F)F)ccc3[nH]2)c1OC (stereo unspecified) [PANTOPRAZOLE]
49 | 105 µM | COc1cc(NC(C)CCCN)c2ncccc2c1 (stereo unspecified) [PRIMAQUINE]
50 | 36 µM | CC(C)NC(=N)NC(=N)Nc1ccc(Cl)cc1 [PROGUANIL]
51 | 100 µM | CCc1nc(N)nc(N)c1-c1ccc(Cl)cc1 [PYRIMETHAMINE]
52 | 64 µM | COc1ccc2nc3cc(Cl)ccc3c(Nc3cc(CN4CCCC4)c(O)c(CN4CCCC4)c3)c2n1 [PYRONARIDINE]
53 | 41 µM | CCN(CC)CCCC(C)Nc1c2ccc(Cl)cc2nc2ccc(OC)cc12 (stereo unspecified) [QUINACRINE]
54 | 1 µM | CO[C@H]1/C=C/O[C@@]2(C)Oc3c(C)c(O)c4c(O)c(c(/C=N/N5CCN(C)CC5)c(O)c4c3C2=O)NC(=O)/C(C)=C\C=C\[C@H](C)[C@H](O)[C@@H](C)[C@@H](O)[C@@H](C)[C@H](OC(C)=O)[C@@H]1C [RIFAMPIN]
55 | 21 µM | CN(C)[C@@H]1C(O)=C(C(=O)NCN2CCCC2)C(=O)[C@@]2(O)C(O)=C3C(=O)c4c(O)cccc4[C@@](C)(O)[C@H]3C[C@@H]12 [ROLITETRACYCLINE]
56 | 19 µM | CC[C@H]1OC(=O)[C@H](C)[C@@H](O[C@H]2C[C@@](C)(OC)[C@@H](O)[C@H](C)O2)[C@H](C)[C@@H](O[C@@H]2O[C@H](C)C[C@H](N(C)C)[C@H]2O)[C@](C)(O)C[C@@H](C)/C(=N\OCOCCOC)[C@H](C)[C@@H](O)[C@]1(C)O [ROXITHROMYCIN]
57 | 460 µM | CCCCCCCCCCOS(=O)(=O)O [SODIUM DECYL SULFATE]
58 | 145 µM | CCCCCCCCCCCCCCCCOS(=O)(=O)O [SODIUM HEXADECYL SULFATE]
59 | 3 µM | C=C[C@@H]1CN2CC[C@@]3(CNc4c3ccc(O)c4[C@H]3CCCN3C)[C@@H]2C[C@@H]1C[C@H]1c2[nH]c3ccccc3c2CCN1C [STRYCHNOPHYLLINE]
60 | 37 µM | COc1ncnc(NS(=O)(=O)c2ccc(N)cc2)c1OC [SULFADOXINE]
61 | 2 µM | C/C=C1/CN2CC[C@]34c5ccccc5N5C(=O)C([C@H]6C[C@]78c9ccccc9N9C(=O)C=C[C@@H]([C@H]97)[C@H]7C[C@@H]8N6C/C7=C/C)=C[C@H]([C@H]53)[C@H]1C[C@H]24 [SUNGUCINE]

Row | Structure (SMILES) | IC50
62 | NC(=O)C1C2c3ccccc3C(c3ccccc32)C1C(N)=O (single isomer, unassigned) | 42 µM
63 | CCCNC(=O)CC[C@@H](C)[C@H]1CC[C@H]2[C@@H]3[C@H](OC(C)=O)C[C@@H]4CC5(CC[C@]4(C)[C@H]3CC[C@]12C)OOC1(CCC(CC)CC1)OO5 (single isomer, unassigned; form 2) | 1 µM
64 | CCCCN(CC)C(P(=O)(O)O)P(=O)(O)O [(BUTYL(ETHYL)AMINO)METHYLENEDIPHOSPHONIC ACID] | 200 µM
65 | O=P(O)(O)C(NC1CC1)P(=O)(O)O [(CYCLOPROPYLAMINO)METHYLENEDIPHOSPHONIC ACID] | 200 µM
66 | CN(C)CCC=C1c2ccccc2CCc2ccccc21 [AMITRIPTYLINE] | 558 µM
67 | C[C@H]1[C@@H](O)O[C@@H]2O[C@@]3(C)CC[C@H]4[C@H](C)CC[C@@H]1[C@@]24OO3 [ARTENIMOL] | 1000 µM
68 | C[C@H]1[C@H](OC(=O)CCC(=O)O)O[C@@H]2O[C@@]3(C)CC[C@H]4[C@H](C)CC[C@@H]1[C@@]24OO3 [ARTESUNATE] | 3 µM
69 | O=C1C(O)=C([C@H]2CC[C@H](c3ccc(Cl)cc3)CC2)C(=O)c2ccccc21 [ATOVAQUONE] | 1 µM
70 | c1ccc2c(c1)ccc1nc3ccccc3nc12 [BENZO[A]PHENAZINE] | 20 µM
71 | C=C[C@H]1CN2CC[C@H]1C[C@H]2[C@H](O)c1ccnc2ccccc12 [CINCHONIDINE] | 27 µM
72 | C=C[C@H]1CN2CC[C@H]1C[C@@H]2[C@@H](O)c1ccnc2ccccc12 [CINCHONINE] | 23 µM
73 | CCNCc1cc(Nc2ccnc3cc(Cl)ccc23)ccc1O [DESETHYL AMODIAQUINE] | 73 µM
74 | Cc1c(OCC(F)(F)F)ccnc1C[S+]([O-])c1nc2ccccc2[nH]1 (stereo unspecified) [LANSOPRAZOLE] | 11 µM
75 | OC(c1cc(C(F)(F)F)nc2c(C(F)(F)F)cccc12)C1CCCCN1 (stereo unspecified) [MEFLOQUINE] | 5 µM
76 | CCn1cc(C(=O)O)c(=O)c2cc(F)c(N3CCNCC3)cc21 [NORFLOXACIN] | 75 µM
77 | CC(=O)[C@H]1CC[C@H]2[C@@H]3CCC4=CC(=O)CC[C@]4(C)[C@H]3CC[C@]12C [PROGESTERONE] | 24 µM
78 | CC(C)[C@H](CO)Nc1nc(Nc2cccc(Cl)c2)c2ncn(C(C)C)c2n1 [PURVALANOLA] | 3 µM
79 | C=C[C@H]1CN2CC[C@H]1C[C@@H]2[C@@H](O)c1ccnc2ccc(OC)cc12 [QUINIDINE] | 24 µM
80 | C=C[C@H]1CN2CC[C@H]1C[C@H]2[C@H](O)c1ccnc2ccc(OC)cc12 [QUININE] | 54 µM
81 | COCCCOc1ccnc(C[S+]([O-])c2nc3ccccc3[nH]2)c1C (stereo unspecified) [RABEPRAZOLE] | 7 µM
